Test results: a melting point compilation (Tetko et al.; mined from patent text by program, amines drawn as free bases though some values may be those of a salt)

Compared with `O=C1c2c(Cl)cccc2-n2cnc(-c3cnco3)c2[C@@H]2CCCN12`, `NC(CN1C(=O)C2(COc3cc4c(cc32)OCO4)c2c(Cl)cccc21)=NO` (configuration not stated) is lower in melting point: 201 to 202 °C for the first, 180 to 185 °C for the second.

Compared with `NC(=O)c1cc2ccccc2cc1O`, `CCOC(=O)c1cc(O)c(-c2ccccc2)c([N+](=O)[O-])c1` is lower in melting point: 216 to 217 °C for the first, 128 to 130 °C for the second.

First: COc1ccc(-c2nnc3c4ccccc4c(CC#N)nn23)cc1
Second: COC(=O)c1ccc(C(=O)c2cccc3ccccc23)n1C
The melting point of the first is higher: 252 to 254 °C for the first, 80 °C for the second.

First: CCOC(=O)c1cc(C)n(-c2ccc([N+](=O)[O-])cn2)c1-c1ccccc1
Second: CCN(CC)C(=O)COc1nc(-c2ccccc2)c2ccccc2n1
The melting point of the first is higher: 147 to 149 °C for the first, 88 °C for the second.

First: CC(C)(C)OC(=O)NCCc1ccnc(-c2nc(=O)c3ccccc3s2)c1
Second: CCN(CC)C(=O)C(C)c1cc(-c2ccccc2)nc2ccccc12 (configuration not stated)
The melting point of the first is higher: 160 to 161 °C for the first, 132 °C for the second.

Compared with `COc1ccc(S(=O)(=O)N(CC(F)(F)F)c2ccc(Cl)cc2Cc2c(F)cccc2F)cc1OC`, `COc1ccc2[nH]c(-c3ccc(OC)c4nc(C(F)(F)F)ccc34)nc2c1` is higher in melting point: 70 °C for the first, 131 to 133 °C for the second.

First: CCCC(=CC(=O)Nc1ccccc1)OC
Second: COC(=O)c1c(C(N)=O)[nH]c(-c2ccccc2)c1N
The melting point of the first is lower: 104 °C for the first, 177 to 179 °C for the second.

First: COc1ccc(-c2nc(S(=O)(=O)c3ccc(Cl)cc3)[nH]c2-c2ccc(OC)cc2)cc1
Second: COc1ccc(C2CC(=O)CC(c3ccc(OC)cc3)N2C)cc1 (configuration not stated)
The melting point of the first is higher: 187 to 188 °C for the first, 129 to 130 °C for the second.

Compared with `Cc1cc(S(=O)(=O)c2ccc(O)cc2)ccc1C1CCN(C)C1` (configuration not stated), `CCC1c2cccn2-c2ccc(Cl)cc2N1S(=O)(=O)c1ccc(O)c(C)c1` (configuration not stated) is lower in melting point: 186 to 188 °C for the first, 170 to 172 °C for the second.

First: CSc1ccc(-n2c(-c3ccc(F)cc3)nc(SC)c(C#N)c2=O)cc1
Second: Cc1cc(F)ccc1C(=C(C=O)c1nnnn1C)c1ccc(F)cc1C
The melting point of the first is higher: 204 to 207 °C for the first, 135 to 136 °C for the second.

Compared with `CSC[C@H](C)NC(=O)c1c(OC(F)(F)F)cccc1C(=O)Nc1ccc(Cn2nc(C(F)(F)F)cc2C(F)(F)F)cc1C`, `O=C1N(Cc2ccc(C(F)(F)F)o2)c2ccccc2C12COc1cc(OC(F)(F)F)ccc12` (configuration not stated) is lower in melting point: 158 to 160 °C for the first, 78 to 80 °C for the second.

First: CC(O)CN(CC(=O)O)CC(C)O (configuration not stated)
Second: CC(C)c1cccc(C(C)C)c1OCC(=O)O
The melting point of the first is higher: 145 °C for the first, 84 to 87 °C for the second.

Compared with `O=C1NC(=O)C2(N1)C(=O)N(Cc1ccc(Br)cc1F)c1c(Cl)cccc12` (configuration not stated), `CC(=O)N1CCCC2(Cc3ccc(Br)cc3)C(=O)N(c3cc(Cl)nc(Cl)c3)C(=O)N12` (configuration not stated) is lower in melting point: 240 to 241 °C for the first, 91 °C for the second.

First: O=c1nc(-c2ccccc2)c2ccsc2[nH]1
Second: Cc1nc(-c2ccc(Cl)cc2C(=O)c2ccccc2)n[nH]1
The melting point of the first is higher: 247 to 249 °C for the first, 148 to 150 °C for the second.

First: CC(=O)NC(=O)c1cc([N+](=O)[O-])cnc1C(Br)Br
Second: O=c1[nH]cc(Cc2cccnc2)cc1[N+](=O)[O-]
The melting point of the first is lower: 168 °C for the first, 216 to 217 °C for the second.

First: CC(C)NCC(=O)N1c2ccccc2N(C)S(=O)(=O)c2ccccc21
Second: N#Cc1ccccc1-c1ccc(CO)cn1
The melting point of the first is lower: 115 to 117 °C for the first, 152 to 153 °C for the second.

First: Cc1noc(NS(=O)(=O)c2ccccc2-c2ccc(-c3ncco3)cc2CN(CC(F)(F)F)C(=O)C(C)(C)C)c1C
Second: Cn1c(C(=O)OCc2cc(C(F)(F)F)cc(C(F)(F)F)c2)c(-c2ccccc2)c2ccccc2c1=O
The melting point of the first is lower: 146 to 147 °C for the first, 153 to 154 °C for the second.

First: CCc1cnccc1C[C@@H](O)C(Cl)(Cl)Cl
Second: CC(=O)Oc1ccc2c(c1)C(=O)NC(C(Cl)(Cl)Cl)O2 (configuration not stated)
The melting point of the first is lower: 132 to 134 °C for the first, 201 to 203 °C for the second.

First: CC(=O)OC1CSC(Oc2ccc(-c3cccnc3)nc2)C(OC(C)=O)C1OC(C)=O (configuration not stated)
Second: COC(=O)C(=CC(=CN(C)C)c1cc(OCc2ccccc2)ccc1[N+](=O)[O-])[N+](=O)[O-]
The melting point of the first is higher: 196 °C for the first, 158 to 165 °C for the second.

First: COc1ccc2c(c1)OCCC(C(=O)O)=C2
Second: COc1ccc2ccc3c(c2c1)C=C(C(=O)O)CO3
The melting point of the first is lower: 197 to 200 °C for the first, 226 °C for the second.

First: COC(COC(=O)C1=C(C)NC2=C(C(=O)CNC2)C1c1cccc(Cl)c1Cl)c1ccccc1 (configuration not stated)
Second: CCOC(=O)C1=C(COCc2nnc(C)s2)NC(C)=C(C(=O)OC)C1c1cccc(Cl)c1Cl (configuration not stated)
The melting point of the first is higher: 150 to 153 °C for the first, 140 to 144 °C for the second.

First: C1=C(CCc2c[nH]c3ccccc23)CCNC1
Second: Cc1c[nH]c(Cc2ccccc2NC(=O)N2CCN(C)CC2)n1
The melting point of the first is lower: 155 °C for the first, 177 to 179 °C for the second.

First: Nc1c(C(=O)c2cc(F)cc(F)c2)[nH]c2cc(Cl)ccc12
Second: Cn1cc(C(=O)NCc2ccc(Cl)cc2)c(=O)c2cc(C#CCO)cc(F)c21
The melting point of the first is lower: 149 to 151 °C for the first, 186 to 188 °C for the second.

Compared with `Cc1cc(C)nc(NC(=O)Cc2cccn2C)c1`, `Cc1cccc(C)c1NC(=O)N1CC(C)(C)NC1=S` is higher in melting point: 85 °C for the first, 242 to 243 °C for the second.

Compared with `CCS(=O)(=O)c1nsc(NC(=O)NC)c1C(N)=O`, `C=C(CC(=O)Nc1cc(Cl)cc(Cl)c1)C(=O)OCCCCCC` is lower in melting point: 219 to 220 °C for the first, 60 °C for the second.

First: CC(=O)NCC(=O)NCC(=O)N1CC1C#N (configuration not stated)
Second: COC(=O)CCN1CCC(NC(=O)OC(C)(C)C)CC1
The melting point of the first is lower: 70 to 76 °C for the first, 91 to 93 °C for the second.

First: Cc1ccc(CC2CCN(CCOc3ccc4c(c3)=NC(=S)N=4)CC2)cc1
Second: COc1ccc(C(Cc2ccncc2)c2ccc(CO)cc2)cc1OC1CCCC1 (configuration not stated)
The melting point of the first is higher: 271 to 273 °C for the first, 179 to 182 °C for the second.

First: C=C(c1ccccc1)c1ccc(N2CCCC2)cc1
Second: COc1ccc(N2CCN(c3ccc(NC(=O)Oc4ccccc4)nc3)CC2)cc1
The melting point of the first is lower: 82.5 to 83 °C for the first, 130 to 132 °C for the second.

First: Cn1ccc(S(N)(=O)=O)n1
Second: COc1cccc(NS(=O)(=O)c2ccc(N)cc2)c1
The melting point of the first is higher: 156 to 158 °C for the first, 142 to 145 °C for the second.

First: CC1CCC(=NNc2ccccc2)c2ncc(C(=O)NN)c(=O)n21 (configuration not stated)
Second: Cc1cnc(C#Cc2ccccc2)s1
The melting point of the first is higher: 205 to 207 °C for the first, 82 to 83 °C for the second.

First: O=C(c1cccc(Nc2nc(-c3ccccc3)nc3ccccc23)c1)N1CCN(c2ncc(Cc3ccccc3)cn2)CC1
Second: CC(C)[C@H](NC(=O)OCc1ccc2ccccc2n1)C(=O)N[C@@H](Cc1ccccc1)C[C@H](O)[C@H](Cc1ccccc1)NC(=O)OCc1cccnc1
The melting point of the first is higher: 214 to 215 °C for the first, 141 to 143 °C for the second.

First: Nc1ncnc2c1c(Cl)cn2COCCO
Second: CN(C)CCc1cccc(OCCCNc2nc(N)nn2C)c1
The melting point of the first is higher: 149 to 150 °C for the first, 81 to 82 °C for the second.

Compared with `Cc1cc2ccccc2nc1-n1cncn1`, `c1ccc(CCn2ncc3c2ncn2nc(-c4ccco4)nc32)cc1` is higher in melting point: 80 to 81 °C for the first, 174 to 175 °C for the second.

First: Clc1ccc2ccc(COc3cccc(CN4CCc5cccc(CCc6nnn[nH]6)c54)c3)nc2c1
Second: CCC(OC)(c1cccc(OCc2ccc3c(-c4ccoc4)cc(C#N)cc3c2)c1)c1nccs1 (configuration not stated)
The melting point of the first is lower: 137 to 140 °C for the first, 156 to 157 °C for the second.

Compared with `O=C1CCC2=C1C(c1ccc([N+](=O)[O-])s1)C1=C(CCS1)N2` (configuration not stated), `O=[N+]([O-])c1cc2c(NCc3ccc4c(c3)OCO4)nc(-n3ccnc3)nc2s1` is lower in melting point: 251 to 254 °C for the first, 245 °C for the second.

First: CNN(NC)C(=S)Oc1cccnc1C(=O)OC
Second: COC(=O)c1nc(-c2ccc(CF)cc2)cc(N)c1Cl
The melting point of the first is lower: 74 to 75 °C for the first, 95 to 97 °C for the second.

First: Cc1ccccc1-c1coc2cc(OCC(=O)O)cc(Cl)c2c1=O
Second: C=CCc1ccc2oc(C(=O)c3ccc(OC)cc3)c(C)c2c1O
The melting point of the first is higher: 191 to 192 °C for the first, 48 to 50 °C for the second.

First: Nc1cccc(-c2cccc(-c3ccnc4c(C(=O)c5cccs5)cnn34)c2)c1
Second: CCC(=O)Nc1cccc(-c2ccnc3c(C(=O)c4cccs4)cnn23)c1
The melting point of the first is lower: 117 to 121 °C for the first, 208 to 210 °C for the second.

First: CC(C(=O)OCC(c1cccc(C(F)(F)F)c1)N1CCNCC1)c1ccc2c(c1)CC(C(C)C)C2 (configuration not stated)
Second: COc1cc2c(cc1OC)CN(C(=O)Cc1ccc(-c3ccccc3)cc1)CC2
The melting point of the first is lower: 56 to 58 °C for the first, 109 to 111 °C for the second.

First: Cc1nc(-c2ccc(Br)c(C)c2)no1
Second: CC(Cc1sc2ccc(Cl)cc2c1Cl)=NO
The melting point of the first is lower: 78 °C for the first, 133 to 138 °C for the second.

First: CCC(CC)n1cc(Br)nc(N2CCc3cc(OC)cc(Br)c32)c1=O
Second: COc1ccc2c(c1)CCC1CCNC(=O)C(CCl)=C21 (configuration not stated)
The melting point of the first is lower: 133 to 135 °C for the first, 135 to 138 °C for the second.

First: N#Cc1cc([N+](=O)[O-])ccc1Oc1c(F)c(F)c(F)c(F)c1F
Second: CCc1nnc(CCc2ccc([N+](=O)[O-])cc2)o1
The melting point of the first is higher: 128 to 129 °C for the first, 65 to 66 °C for the second.

First: NC(=O)NC(=O)c1ccncc1
Second: Nc1ccc(O)c(C(=O)CCC(=O)O)c1
The melting point of the first is higher: 245 to 247 °C for the first, 158 to 160 °C for the second.

First: C=C1COc2c(N3CCN(C)CC3)c(F)cc3c(=O)c(C(=O)O)cn1c23
Second: NC(=O)CCC1CN(c2ccc3c(c2)OCC2CN(C(=O)CO)CCN32)C(=O)O1 (configuration not stated)
The melting point of the first is higher: 200 to 201 °C for the first, 115 to 118 °C for the second.

First: CN1CCN(Cc2cccc(-c3ccc(-c4cn([C@H]5CN6CCC5CC6)nn4)s3)c2)CC1
Second: Nc1ccc(N2CCN(CCC3(Cc4ccc(F)cc4)OCCO3)CC2)nc1N
The melting point of the first is higher: 155 °C for the first, 118 to 119 °C for the second.

Compared with `CC(C)(C)C(=O)N[C@H]1CC[C@H](CCN2CCC(c3cccc4c3CCO4)CC2)CC1`, `O=C1CC(c2cccc3c2OCO3)=Nc2ccc(N3CCCC3)cc21` is higher in melting point: 192 °C for the first, 330 to 332 °C for the second.

First: COc1ccc(Nc2nc(NN3CCCCCC3)nc(N(C)C3CCNCC3)n2)cc1Cl
Second: COc1ccc(CNc2nc(C)nc(C)c2Cl)cc1Oc1ccc2ncc([N+](=O)[O-])n2n1
The melting point of the first is lower: 81 °C for the first, 273 to 274 °C for the second.

First: Nc1cc(C=O)nc(C2CCC2)c1F
Second: NC1=NC(=O)N(CC2CC2)CC1Br (configuration not stated)
The melting point of the first is lower: 134 to 135 °C for the first, 139 to 143 °C for the second.

First: CCOC(=O)CN(C)C(=O)c1ccsc1C(=O)c1ccc(F)cc1
Second: CCCc1c(OCCCCCc2c(Cl)c(Cl)cc(OC)c2OC)ccc(C(=O)OC)c1O
The melting point of the first is higher: 127 to 129 °C for the first, 113 to 115 °C for the second.

Going from `FC(F)(F)c1cc(Cl)c(-n2cnc(C(F)(F)C(F)(F)Cl)c2)c(Cl)c1` to `OCC(O)(C(F)(F)F)C(F)(F)F`, the melting point falls from 101 °C to 47 °C.

Compared with `O=c1[nH]c2cc(Cl)c(Cl)c(Cl)c2o1`, `Cc1cc(C)cc(CNc2c(NC(C)(C)C)c(=O)c2=O)c1` is lower in melting point: 253 to 254 °C for the first, 246 to 248 °C for the second.
